{"source": "ChEMBL document CHEMBL5696442", "about": "“Discovery of type II inhibitors of TGFβ-activated kinase 1 (TAK1) and mitogen-activated protein kinase kinase kinase kinase 2 (MAP4K2)” (J Med Chem, 2015)", "key": {"[1]": {"target": "Serine/threonine-protein kinase OSR1 (Homo sapiens) (UniProt O95747)", "sequence (O95747 whole entry, looked up)": "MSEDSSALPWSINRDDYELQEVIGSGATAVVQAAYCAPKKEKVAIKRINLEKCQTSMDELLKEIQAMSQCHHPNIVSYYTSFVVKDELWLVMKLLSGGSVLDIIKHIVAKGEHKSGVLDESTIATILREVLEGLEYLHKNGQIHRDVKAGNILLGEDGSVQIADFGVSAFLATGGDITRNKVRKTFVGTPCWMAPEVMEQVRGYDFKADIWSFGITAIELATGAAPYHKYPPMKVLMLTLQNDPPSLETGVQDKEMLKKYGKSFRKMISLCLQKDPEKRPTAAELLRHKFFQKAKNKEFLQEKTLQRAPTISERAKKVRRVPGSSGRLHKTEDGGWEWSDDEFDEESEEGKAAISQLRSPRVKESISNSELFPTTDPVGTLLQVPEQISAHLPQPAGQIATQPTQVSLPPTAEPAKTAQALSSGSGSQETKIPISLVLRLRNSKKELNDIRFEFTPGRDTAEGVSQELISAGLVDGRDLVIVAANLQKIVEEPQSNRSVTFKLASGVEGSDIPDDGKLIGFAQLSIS", "assay": "Inhibition of OSR1 Lys2 labeling site in human Huh-7 cells at 1 uM by KiNativ Profiling analysis relative to control"}, "[2]": {"target": "5'-AMP-activated protein kinase catalytic subunit alpha-1 (Homo sapiens) (UniProt Q13131)", "assay": "Inhibition of AMPKa1 ATP Loop labeling site in human Huh-7 cells at 1 uM by KiNativ Profiling analysis relative to control", "type": "cell-based"}, "[3]": {"target": "T1, Serine/threonine-protein kinase TBK1 (Homo sapiens) (UniProt Q9UHD2)", "T1 sequence (whole entry)": "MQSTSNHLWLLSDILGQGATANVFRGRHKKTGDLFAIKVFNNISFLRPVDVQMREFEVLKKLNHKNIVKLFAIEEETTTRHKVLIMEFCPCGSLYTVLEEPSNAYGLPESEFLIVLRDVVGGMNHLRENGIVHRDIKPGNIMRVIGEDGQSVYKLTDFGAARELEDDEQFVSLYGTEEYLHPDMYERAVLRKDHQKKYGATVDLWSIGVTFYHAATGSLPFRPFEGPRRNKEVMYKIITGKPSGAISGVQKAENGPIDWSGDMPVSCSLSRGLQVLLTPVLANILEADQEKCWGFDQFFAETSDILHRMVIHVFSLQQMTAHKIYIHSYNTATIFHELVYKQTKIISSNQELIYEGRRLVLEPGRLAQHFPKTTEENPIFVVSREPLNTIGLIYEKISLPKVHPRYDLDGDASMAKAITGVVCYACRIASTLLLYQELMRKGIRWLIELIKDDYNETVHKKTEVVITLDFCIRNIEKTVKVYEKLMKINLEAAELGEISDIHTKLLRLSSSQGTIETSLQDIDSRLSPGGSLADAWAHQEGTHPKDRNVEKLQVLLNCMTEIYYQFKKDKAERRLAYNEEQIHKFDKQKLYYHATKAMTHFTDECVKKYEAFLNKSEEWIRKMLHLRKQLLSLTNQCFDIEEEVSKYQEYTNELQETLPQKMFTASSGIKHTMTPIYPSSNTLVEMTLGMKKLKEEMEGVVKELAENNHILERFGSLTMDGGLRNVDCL", "assay": "Inhibition of TBK1 Lys1 labeling site in human Huh-7 cells at 1 uM by KiNativ Profiling analysis relative to control", "type": "cell-based"}, "[4]": {"target": "Mitogen-activated protein kinase 14 (Homo sapiens, UniProt Q16539)", "sequence (Q16539 whole entry)": "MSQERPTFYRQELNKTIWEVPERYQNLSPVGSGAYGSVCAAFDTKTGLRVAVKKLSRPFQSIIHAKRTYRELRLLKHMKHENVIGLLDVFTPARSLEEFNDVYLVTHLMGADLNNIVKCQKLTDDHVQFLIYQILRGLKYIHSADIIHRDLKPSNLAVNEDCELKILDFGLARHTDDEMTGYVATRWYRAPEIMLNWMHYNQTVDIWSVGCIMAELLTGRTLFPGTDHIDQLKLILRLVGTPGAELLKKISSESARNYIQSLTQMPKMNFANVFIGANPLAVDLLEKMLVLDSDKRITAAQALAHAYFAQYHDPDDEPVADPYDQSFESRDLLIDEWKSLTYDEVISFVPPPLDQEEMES", "assay": "Inhibition of p38 alpha Lys2 labeling site in human A-375 cells at 5 uM by KiNativ Profiling analysis relative to control", "type": "cell-based"}, "[5]": {"target": "Phosphatidylinositol 4,5-bisphosphate 3-kinase catalytic subunit alpha isoform (Homo sapiens) (UniProt P42336)", "sequence (P42336 whole entry, canonical isoform)": "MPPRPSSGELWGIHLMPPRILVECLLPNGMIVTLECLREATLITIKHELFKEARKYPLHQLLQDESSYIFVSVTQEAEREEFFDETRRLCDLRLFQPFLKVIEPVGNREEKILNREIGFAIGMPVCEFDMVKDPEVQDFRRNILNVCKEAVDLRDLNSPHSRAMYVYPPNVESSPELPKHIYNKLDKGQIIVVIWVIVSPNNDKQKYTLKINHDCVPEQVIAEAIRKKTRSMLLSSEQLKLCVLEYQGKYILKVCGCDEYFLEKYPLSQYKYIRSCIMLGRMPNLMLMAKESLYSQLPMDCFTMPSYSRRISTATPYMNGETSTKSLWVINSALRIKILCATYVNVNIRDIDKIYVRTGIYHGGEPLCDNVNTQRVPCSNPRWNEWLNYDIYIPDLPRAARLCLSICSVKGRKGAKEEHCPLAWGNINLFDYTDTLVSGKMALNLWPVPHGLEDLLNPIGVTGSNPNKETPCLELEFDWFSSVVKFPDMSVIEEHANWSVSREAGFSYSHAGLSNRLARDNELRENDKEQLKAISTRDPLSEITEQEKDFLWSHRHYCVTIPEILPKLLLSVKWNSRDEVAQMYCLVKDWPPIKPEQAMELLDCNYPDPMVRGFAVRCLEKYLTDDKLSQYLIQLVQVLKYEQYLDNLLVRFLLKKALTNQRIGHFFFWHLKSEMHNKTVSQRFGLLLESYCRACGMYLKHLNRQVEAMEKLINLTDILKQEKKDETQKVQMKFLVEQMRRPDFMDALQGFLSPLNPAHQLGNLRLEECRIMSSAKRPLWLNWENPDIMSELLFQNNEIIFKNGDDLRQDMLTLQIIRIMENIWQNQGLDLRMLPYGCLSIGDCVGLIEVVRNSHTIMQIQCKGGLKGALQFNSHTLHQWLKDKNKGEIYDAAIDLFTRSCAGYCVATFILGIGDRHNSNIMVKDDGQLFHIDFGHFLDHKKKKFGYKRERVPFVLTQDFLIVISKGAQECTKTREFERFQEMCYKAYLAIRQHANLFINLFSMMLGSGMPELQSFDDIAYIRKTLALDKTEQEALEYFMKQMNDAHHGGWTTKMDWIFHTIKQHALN", "assay": "Inhibition of PIK3CA ATP labeling site in human A-375 cells at 0.05 uM by KiNativ Profiling analysis relative to control", "type": "cell-based"}, "[6]": {"test_system": "Epidermal growth factor receptor (Homo sapiens), P00533 [L858R]", "sequence (P00533 whole entry L858R)": "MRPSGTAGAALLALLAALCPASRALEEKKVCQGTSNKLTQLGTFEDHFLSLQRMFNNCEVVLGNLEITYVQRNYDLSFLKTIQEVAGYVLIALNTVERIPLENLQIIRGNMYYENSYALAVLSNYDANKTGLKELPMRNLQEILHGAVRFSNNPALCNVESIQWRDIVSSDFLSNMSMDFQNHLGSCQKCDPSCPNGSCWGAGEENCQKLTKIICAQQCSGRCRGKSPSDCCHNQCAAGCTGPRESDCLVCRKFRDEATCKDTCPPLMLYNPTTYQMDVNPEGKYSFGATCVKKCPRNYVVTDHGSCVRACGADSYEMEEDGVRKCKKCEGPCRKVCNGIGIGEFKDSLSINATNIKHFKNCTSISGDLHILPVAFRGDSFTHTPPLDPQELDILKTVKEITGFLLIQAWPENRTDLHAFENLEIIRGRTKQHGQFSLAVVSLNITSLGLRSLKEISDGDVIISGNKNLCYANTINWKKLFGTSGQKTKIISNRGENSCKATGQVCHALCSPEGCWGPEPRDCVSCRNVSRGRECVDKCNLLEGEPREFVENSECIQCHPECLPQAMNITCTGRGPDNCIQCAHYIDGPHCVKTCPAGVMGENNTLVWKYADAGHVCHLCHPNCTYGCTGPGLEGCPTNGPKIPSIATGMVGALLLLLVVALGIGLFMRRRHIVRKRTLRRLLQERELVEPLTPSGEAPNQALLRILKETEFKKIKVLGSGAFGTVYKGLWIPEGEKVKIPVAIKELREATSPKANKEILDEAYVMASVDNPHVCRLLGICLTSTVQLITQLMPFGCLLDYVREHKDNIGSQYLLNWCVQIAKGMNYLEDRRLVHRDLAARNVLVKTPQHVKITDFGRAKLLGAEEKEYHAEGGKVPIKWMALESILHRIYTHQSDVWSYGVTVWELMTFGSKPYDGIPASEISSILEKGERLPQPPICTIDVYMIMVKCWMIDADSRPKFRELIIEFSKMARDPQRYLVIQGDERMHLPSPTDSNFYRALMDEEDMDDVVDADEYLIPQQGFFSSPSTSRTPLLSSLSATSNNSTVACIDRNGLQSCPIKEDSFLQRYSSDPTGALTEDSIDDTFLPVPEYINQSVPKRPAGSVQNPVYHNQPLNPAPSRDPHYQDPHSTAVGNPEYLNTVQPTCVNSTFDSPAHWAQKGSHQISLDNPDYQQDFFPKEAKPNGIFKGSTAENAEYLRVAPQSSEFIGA", "assay": "Inhibition of EGFR L858R mutant (unknown origin) at 1 uM by Ambit Kinomescan binding assay relative to control"}, "MEF": {"test_system": "MEF", "assay": "Inhibition of IL-1alpha induced JNK1/2 phosphorylation level in mouse MEF cells preincubated for 1 hr followed by IL-1 alpha stimulation and measured after 30 mins by Western blot analysis", "type": "functional, cell-based", "details": "dose 0.01-10 µM"}, "[7]": {"target": "Death-associated protein kinase 2 (Homo sapiens) (UniProt Q9UIK4)", "sequence (Q9UIK4 whole entry, looked up)": "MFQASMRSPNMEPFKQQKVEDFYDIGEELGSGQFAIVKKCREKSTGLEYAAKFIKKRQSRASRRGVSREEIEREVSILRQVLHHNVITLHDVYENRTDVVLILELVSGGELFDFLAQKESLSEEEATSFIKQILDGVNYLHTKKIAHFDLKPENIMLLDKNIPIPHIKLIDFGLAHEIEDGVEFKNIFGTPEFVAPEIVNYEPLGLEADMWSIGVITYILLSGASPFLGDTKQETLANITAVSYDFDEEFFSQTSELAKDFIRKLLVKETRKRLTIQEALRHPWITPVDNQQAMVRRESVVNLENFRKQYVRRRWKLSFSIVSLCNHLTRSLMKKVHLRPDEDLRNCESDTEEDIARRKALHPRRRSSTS", "assay": "Inhibition of DAPK2 (unknown origin) at 10 uM by Ambit Kinomescan binding assay"}, "[8]": {"target": "T2, Eukaryotic translation initiation factor 2-alpha kinase 3 (Homo sapiens) (UniProt Q9NZJ5)", "T2 sequence (whole entry)": "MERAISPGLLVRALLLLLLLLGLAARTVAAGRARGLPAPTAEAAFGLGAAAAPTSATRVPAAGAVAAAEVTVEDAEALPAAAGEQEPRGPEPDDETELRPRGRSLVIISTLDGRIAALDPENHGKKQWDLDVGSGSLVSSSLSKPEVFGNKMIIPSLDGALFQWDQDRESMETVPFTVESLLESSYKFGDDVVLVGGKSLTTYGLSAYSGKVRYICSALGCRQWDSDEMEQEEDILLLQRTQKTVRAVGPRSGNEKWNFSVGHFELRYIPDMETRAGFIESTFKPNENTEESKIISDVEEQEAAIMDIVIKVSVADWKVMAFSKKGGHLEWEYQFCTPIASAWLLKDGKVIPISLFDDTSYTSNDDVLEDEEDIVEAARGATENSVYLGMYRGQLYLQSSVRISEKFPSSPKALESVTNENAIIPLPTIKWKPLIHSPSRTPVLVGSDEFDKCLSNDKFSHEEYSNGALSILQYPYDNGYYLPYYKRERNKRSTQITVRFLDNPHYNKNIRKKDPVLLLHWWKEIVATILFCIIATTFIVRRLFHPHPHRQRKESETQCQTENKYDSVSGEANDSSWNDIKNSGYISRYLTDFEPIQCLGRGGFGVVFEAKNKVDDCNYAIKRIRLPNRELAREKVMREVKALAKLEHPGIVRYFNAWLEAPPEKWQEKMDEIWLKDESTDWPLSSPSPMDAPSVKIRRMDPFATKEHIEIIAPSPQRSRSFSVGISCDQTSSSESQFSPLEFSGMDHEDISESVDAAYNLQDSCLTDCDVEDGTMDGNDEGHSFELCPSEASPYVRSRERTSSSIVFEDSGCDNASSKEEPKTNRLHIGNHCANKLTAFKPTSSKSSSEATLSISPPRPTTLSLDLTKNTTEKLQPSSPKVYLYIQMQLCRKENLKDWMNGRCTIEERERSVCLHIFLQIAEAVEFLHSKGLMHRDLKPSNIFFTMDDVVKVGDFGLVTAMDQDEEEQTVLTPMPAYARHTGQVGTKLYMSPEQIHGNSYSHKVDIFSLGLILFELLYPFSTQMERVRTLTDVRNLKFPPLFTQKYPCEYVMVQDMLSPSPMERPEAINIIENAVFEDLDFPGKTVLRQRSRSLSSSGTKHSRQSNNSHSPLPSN", "assay": "Inhibition of PEK K2 labeling site in human Huh-7 cells at 1 uM by KiNativ Profiling analysis relative to control", "type": "cell-based"}, "[9]": {"target": "Serine/threonine-protein kinase PLK1 (Homo sapiens) (UniProt P53350)", "sequence (P53350 whole entry)": "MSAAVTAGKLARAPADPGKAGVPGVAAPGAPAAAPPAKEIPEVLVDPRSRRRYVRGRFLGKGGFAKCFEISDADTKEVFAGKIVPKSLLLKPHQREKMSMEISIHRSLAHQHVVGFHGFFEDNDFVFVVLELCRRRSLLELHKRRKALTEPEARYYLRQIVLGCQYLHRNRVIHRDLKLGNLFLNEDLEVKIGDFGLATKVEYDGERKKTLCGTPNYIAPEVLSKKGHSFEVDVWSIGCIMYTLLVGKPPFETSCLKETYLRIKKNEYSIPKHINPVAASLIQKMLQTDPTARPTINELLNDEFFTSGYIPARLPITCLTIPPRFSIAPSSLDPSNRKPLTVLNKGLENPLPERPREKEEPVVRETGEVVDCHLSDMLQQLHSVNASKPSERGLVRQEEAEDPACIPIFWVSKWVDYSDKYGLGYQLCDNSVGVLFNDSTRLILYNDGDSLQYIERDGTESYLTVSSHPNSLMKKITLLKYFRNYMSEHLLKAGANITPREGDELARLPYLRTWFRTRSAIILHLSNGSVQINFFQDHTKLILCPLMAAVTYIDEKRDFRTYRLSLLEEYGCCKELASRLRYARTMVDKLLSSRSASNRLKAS", "assay": "Inhibition of PLK1 (unknown origin) at 10 uM by Ambit Kinomescan binding assay"}, "[10]": {"target": "Calcium/calmodulin-dependent protein kinase kinase 2 (Homo sapiens) (UniProt Q96RR4)", "sequence (Q96RR4 2-588 limits assumed)": "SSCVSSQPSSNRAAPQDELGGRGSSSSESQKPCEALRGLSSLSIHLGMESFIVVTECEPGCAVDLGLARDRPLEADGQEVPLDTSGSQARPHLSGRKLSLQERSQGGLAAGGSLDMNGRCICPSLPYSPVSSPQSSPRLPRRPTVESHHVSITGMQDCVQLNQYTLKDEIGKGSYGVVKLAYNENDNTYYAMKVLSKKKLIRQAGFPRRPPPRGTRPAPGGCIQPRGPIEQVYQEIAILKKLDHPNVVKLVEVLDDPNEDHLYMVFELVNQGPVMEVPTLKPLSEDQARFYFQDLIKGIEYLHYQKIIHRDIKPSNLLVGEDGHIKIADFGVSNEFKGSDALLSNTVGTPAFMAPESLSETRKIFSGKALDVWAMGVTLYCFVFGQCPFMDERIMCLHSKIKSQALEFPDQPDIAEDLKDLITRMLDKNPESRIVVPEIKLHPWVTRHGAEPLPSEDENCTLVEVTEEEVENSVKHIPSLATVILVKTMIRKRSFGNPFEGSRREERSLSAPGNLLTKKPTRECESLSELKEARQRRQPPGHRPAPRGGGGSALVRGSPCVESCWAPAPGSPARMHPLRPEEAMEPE", "assay": "Inhibition of CAMKK2 (unknown origin) at 10 uM by Ambit Kinomescan binding assay relative to control"}}, "note": "Activity calls are given as the source filed them. No cut-off for these calls is given here."}
{"molecule": "CNc1cc(Oc2cc(C(=O)Nc3cc(N4CCN(C)CC4)cc(C(F)(F)F)c3)ccc2C)ncn1", "values": [{"measurement": "inhibition", "setting": "[1]", "value": 57.3, "unit": "%"}, {"measurement": "inhibition", "setting": "[2]", "value": -3.8, "unit": "%"}, {"measurement": "inhibition", "setting": "[3]", "value": 30.9, "unit": "%"}]}
{"molecule": "CCN1CCN(Cc2ccc(NC(=O)c3ccc(C)c(/C=C/c4cnc5[nH]ccc5c4OC)c3)cc2C(F)(F)F)CC1", "values": [{"measurement": "inhibition", "setting": "[4]", "value": 52.4, "unit": "%"}, {"measurement": "inhibition", "setting": "[5]", "value": 39, "unit": "%"}, {"measurement": "inhibition", "setting": "[6]", "value": 4, "unit": "%"}]}
{"molecule": "CCN1CCN(Cc2ccc(NC(=O)c3ccc(C)c(Oc4ccnc5[nH]ccc45)c3)cc2C(F)(F)F)CC1", "values": [{"measurement": "inhibition", "setting": "MEF", "value": "Dose-Dependent Effect"}, {"measurement": "inhibition", "setting": "[7]", "value": "inactive"}, {"measurement": "inhibition", "setting": "[8]", "value": "inactive"}, {"measurement": "inhibition", "setting": "[9]", "value": "inactive"}, {"measurement": "inhibition", "setting": "[10]", "value": 28, "unit": "%"}]}
